Columns and labels:
MDCKE11 cells = test: cAMP production in renal tubular epithelial cells (MDCK); format: cell-based, canine; details: P<0.001 when compared to all other groups
Method: The culture medium was aspirated from RTEc monolayers, and the cells were washed three times with PBS. Madin-Darby canine kidney cell (MDCKc) monolayers were then overlaid with 5 mls PBS at room temperature on 100 mm culture dishes. cAMP phosphodiesterase inhibitor was added at a final concentration of 10 μM to all incubations to prevent the enzymatic degradation of cellular cAMP. Isoproterenol (ISO) at 10^−5M, bFGF (basic fibroblast growth factor) (20 ng/ml), or both were added to the treatment groups. Cells were incubated under an atmosphere of 95% air and 5% CO2 at 37° C. for 1, 3, 5, 10, 20, and 40 minute periods. Following the incubation period, 1.0 ml/plate aliquot samples were transferred to 12×75 mm polypropylene tubes, and immediately placed in a 0° C. ice bath. […] Total cellular protein was determined using the BCA (bicinchoninic acid) protein assay (Pierce, Rockford, Ill.) according to the manufacturers specification. The cAMP assays were done as prescribed by the manufacturer of the cAMP quantitation kit (Diagnostic Products Corporation, Los Angeles, Calif.); this procedure is patterned after a procedure described by Tovey et al. The procedure entails a competition of ^3H cAMP for cAMP binding protein, separation of free (unbound) cAMP by adsorption onto dextrancoated charcoal, followed by counting of bound ^3H by liquid scintillation (Izevbigie, Pediatr. Nephrol., 2000).

[1] = test system: differentiated C2C12 cells; test: cAMP production in differentiated C2C12 myoblasts; format: cell-based, mouse; details: isoproterenol 10, 0.1 or 0.001 μM, 37° C., 10 min
Method: Medium was aspirated from differentiated C2C12 cells, and monolayers were washed with PBS. Monolayers were then overlaid with PBS at 37° C. containing the following treatments: isoproterenol (ISO) at 10^−5, 10^−7, and 10^−9 M forskolin (positive control) at 5×10^−5 M, and negative control (no treatments). A cAMP phosphodiesterase inhibitor, imidazolidin, (10^−6 M) was added to all incubations to prevent enzymatic degradation of cAMP. Culture dishes were placed in a humidified incubator under an atmosphere of 95% air and 5% CO2 at 37° C. for 5-10 min. After the incubation, aliquots of incubation medium were quickly removed, chilled, and stored at −20° C. for cAMP determination (within 3 days). Cells were washed and frozen for later protein determination (Bradford, 1976). The cAMP assays were done as prescribed by the manufacturer of the cAMP quantitation kit (Diagnostic Products Corporation, Los Angeles, Calif.); this procedure is patterned after a procedure described by Tovey et al. The procedure entails a competition of ^3H cAMP for cAMP binding protein, separation of free (unbound) cAMP by adsorption onto dextran-coated charcoal, followed by counting of bound ^3H by liquid scintillation. […] Thus, cAMP production was determined as the sum of assayable cAMP in the PBS and within the cells.

HFMc = test: cAMP accumulation in human fetal mesangial cells (extracellular cAMP, competitive 3H-cAMP binding kit); format: cell-based; details: 10 min; for cAMP accumulation compared with control cells: confluent serum-starved HFMc, Ang II 1 μM, bFGF 20 ng/ml, p<0.05
Method: The culture medium was aspirated from HFMc monolayers, and the cells were washed three times with PBS. Cell monolayers were then overlaid with PBS at room temperature on 100 mm culture dishes. A cAMP phosphodiesterase inhibitor was added to a final concentration of 10 μM to all incubations to prevent the enzymatic degradation of cellular cAMP. Isoproterenol (ISO) at 10^−5M, with or without bFGF (basic fibroblast growth factor) (20 ng/ml), or three doses of ISO (10^−5, 10^−7, 10^−9M) with 10^−6M angiotensin II (Ang II) were added to the treatment groups. Cells were incubated under an atmosphere of 95% air and 5% CO2 at 37° C. for 10 minutes. Following the incubation period, 1.0 ml/plate aliquot samples were transferred to 12×75 mm polypropylene tubes, and immediately placed in a 0° C. ice bath. The cell monolayers and 1.0 ml aliquots were stored at −20° C. for protein determination and cAMP analysis respectively. Total cellular protein was determined using the BCA (bicinchoninic acid) protein assay (Pierce, Rockford, Ill.) according to the manufacturers specification. The extracellular cAMP per plate was quantified using Diagnostic Corporation (Los Angeles, Calif.) kits according to the manufacturer's specifications; this procedure is patterned after a procedure described by Tovey et al. The procedure entails a competition of ^3H cAMP for cAMP binding protein, separation of free (unbound) cAMP by adsorption onto dextrancoated charcoal, followed by counting of bound ^3H by liquid scintillation (Izevbigie, Pediatr. Res., 2000).

CC(C)NCC(O)c1ccc(O)c(O)c1 (centres unmarked) [Isoproterenol, isoproterenol]
cAMP production (MDCKE11 cells): induction of cAMP production
cAMP production [1]: dose-dependent cAMP production

angiotensin II (DRVYIHPF; Angiotensin-2; UniProt P01019 25-32, looked up) [Ang II]
cAMP accumulation compared with control cells (HFMc): not
modulation of isoproterenol-induced cAMP accumulation (HFMc; serum-starved HFMc, Ang II (1 µM) with different concentrations of isoproterenol, significant at 0.1 and 10 μM isoproterenol (p<0.05)): decreased

basic fibroblast growth factor [bFGF]
cAMP accumulation compared with control cells (HFMc): modest but significant increase
